In patent publication US8859620B2, “Phthalanilate compounds and methods of use” (University of Notre Dame du Lac, priority 2009, dated 2014):
Converted amounts (≈) assume the structure as drawn. Where two headings read alike, the source gives them in different places.

What was measured:
S. aureus NRS11 (Mec^S) = experiment: MIC against S. aureus NRS11 (Table 13); format: cell-based, Staphylococcus aureus; settings: for MIC: compounds dissolved in DMSO or 1% sodium carbonate; for inhibitory properties (in words): Table 13
Method: All recited compounds were dissolved in DMSO or in 1% sodium carbonate and transferred to micro titer plates to final concentrations of 1000 μg/mL.

S. aureus NRS100 (Mec^R) = experiment: MIC against S. aureus NRS100 (Table 14); format: cell-based, Staphylococcus aureus; settings: for MIC: compounds dissolved in DMSO or 1% sodium carbonate; for inhibitory activity (in words): Table 14
Method: The recited compounds were dissolved in DMSO or in 1% sodium carbonate and transferred into micro titer plate to final concentration of 1000 μg/mL.

[1] = target: OXA-10 (class D β-lactamase) (Pseudomonas aeruginosa, UniProt P14489); experiment: β-Lactamase assay (nitrocefin colour change), OXA-10; format: biochemical; settings: for OXA-10: Table 10, class symbols x/xx/xxx, key not given
Chain of OXA-10 (class D β-lactamase) (P14489 20-266, species assumed): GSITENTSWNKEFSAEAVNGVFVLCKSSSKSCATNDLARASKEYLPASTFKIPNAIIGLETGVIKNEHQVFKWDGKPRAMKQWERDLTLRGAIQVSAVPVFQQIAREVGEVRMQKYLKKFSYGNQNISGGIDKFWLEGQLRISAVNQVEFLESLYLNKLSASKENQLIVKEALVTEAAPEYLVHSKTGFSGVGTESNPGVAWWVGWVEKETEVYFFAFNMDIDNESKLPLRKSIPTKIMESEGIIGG
Method: (§1) β-Lactamase Assays (TEM-1, P99, and OXA-10): The activity of the compounds of the invention (inhibitors) toward β-lactamases was evaluated using 96 well plates. The reaction mixture included 10 mM sodium phosphate, pH 7.0, 150 mM sodium chloride, 0.01% Triton X-100, 100 μM nitrocefin, 10 nM of β-lactamases (class A: TEM-1; class C: P99, or class D: OXA-10), and variable concentrations of the inhibitors in a total volume of 100 μL. β-Lactamases were pre-incubated with the compounds at room temperature for 5 minutes, and the assay was initiated by the addition of nitrocefin. The inhibition of the enzyme activity by the compounds was determined by monitoring color change (from yellow to red) of nitrocefin after 20 minutes. Stock solutions of the compounds were prepared in dimethyl sulfoxide (DMSO). No more than 5% DMSO was present in assays, unless noted otherwise. B1aR Assay: The surface domain of B1aR (1 μM) was added to each inhibitor (at various concentrations) in 100 mM sodium phosphate, 50 mM sodium bicarbonate, at pH 7.0. The reaction mixtures were incubated at room temperature for 20 minutes. BOCILLIN FL, a fluorogenic ligand, was added to a concentration of 20 μM in a final volume of 20 μL. The mixtures were incubated at 37° C. for 5 minutes, at which point the reactions were quenched by the addition of 15 μL of the SDS sample buffer (125 mM Tris, 4% SDS, 20% glycerol, 2% 2-mercaptoethanol, pH 6.8), and were boiled for 4 minutes. The samples were loaded onto 15% SDS-PAGE, the gel was developed and scanned using a Storm 840® Fluorimager. The fluorescent bands of BOCILLIN FL-labeled B1aR^S were analyzed by Image Quant 5.2 software. PBP2 Assay: The PBP2 assay was performed according to the methods of Villegas-Esterada et al. (J. Am. Chem. Soc. 2008, 130, 9212-9213).

[2] = target: TEM-1 (class A β-lactamase) (Escherichia coli, UniProt P62593); experiment: β-Lactamase assay (nitrocefin colour change), TEM-1; format: biochemical; settings: for TEM-1: Table 10, class symbols x/xx/xxx, key not given
Chain of TEM-1 (class A β-lactamase) (P62593 24-286 limits assumed): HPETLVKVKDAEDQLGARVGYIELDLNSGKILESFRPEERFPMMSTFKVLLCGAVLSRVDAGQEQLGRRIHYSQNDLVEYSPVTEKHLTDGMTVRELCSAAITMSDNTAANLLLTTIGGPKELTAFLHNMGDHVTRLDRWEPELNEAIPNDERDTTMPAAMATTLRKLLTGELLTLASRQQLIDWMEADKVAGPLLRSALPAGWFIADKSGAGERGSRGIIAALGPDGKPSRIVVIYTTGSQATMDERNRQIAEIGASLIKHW
Method: as §1

[3] = target: P99 (class C β-lactamase) (Enterobacter cloacae, UniProt P05364); experiment: β-Lactamase assay (nitrocefin colour change), P99; format: biochemical
Chain of P99 (class C β-lactamase) (P05364 21-381): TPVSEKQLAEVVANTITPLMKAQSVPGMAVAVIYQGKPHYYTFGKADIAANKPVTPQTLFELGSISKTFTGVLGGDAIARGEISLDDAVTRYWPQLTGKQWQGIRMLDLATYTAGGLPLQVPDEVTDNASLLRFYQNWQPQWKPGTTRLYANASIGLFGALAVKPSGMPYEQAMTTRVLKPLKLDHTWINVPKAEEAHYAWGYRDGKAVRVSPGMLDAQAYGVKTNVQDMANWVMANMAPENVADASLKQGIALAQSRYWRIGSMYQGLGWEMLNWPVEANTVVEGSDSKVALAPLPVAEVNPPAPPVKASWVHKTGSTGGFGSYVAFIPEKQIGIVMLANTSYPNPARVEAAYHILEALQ
Method: as §1

[4] = Staphylococcus aureus, read-out: MIC

| MIC (S. aureus NRS11 (Mec^S); [4]) | MIC (S. aureus NRS100 (Mec^R); [4]) | MIC (S. aureus NRS11 (Mec^S)) | MIC (S. aureus NRS100 (Mec^R)) | SMILES | also measured |
| --- | --- | --- | --- | --- | --- |
| – | – | 128 µg/mL (≈ 323 µM) | 128 µg/mL (≈ 323 µM) | Cc1ccccc1COc1ccc(NC(=O)c2ccccc2C(=O)O)cc1Cl [Compound 383] | – |
| – | – | 500 µg/mL (≈ 1130 µM) | 500 µg/mL (≈ 1130 µM) | CC(Oc1ccc(NC(=O)c2c(C(=O)O)cccc2[N+](=O)[O-])cc1Cl)c1ccccc1 (stereo not drawn) [Compound 391] | – |
| – | – | 500 µg/mL (≈ 1270 µM) | 500 µg/mL (≈ 1270 µM) | O=C(O)c1cccc([N+](=O)[O-])c1C(=O)Nc1ccc(OCc2ccccc2)nc1 [Compound 392] | – |
| – | – | >2,000 μg/mL | >2,000 μg/mL | COCCOCCOc1ccc(NC(=O)c2c(F)c(F)c(F)c(F)c2C(=O)O)cn1 [Compound 401] | – |
| – | – | >2,000 μg/mL | >2,000 μg/mL | COCCOCCOc1ccc(NC(=O)c2c(Br)c(Br)c(Br)c(Br)c2C(=O)O)cn1 [Compound 403] | – |
| 500 µg/mL (≈ 723 µM) | 500 µg/mL (≈ 723 µM) | – | – | COCCOCCOc1ccc(NC(=O)c2c(Br)c(Br)c(Br)c(Br)c2C(=O)O)c[n+]1[O-] [Compound 410] | – |
| – | 250 µg/mL (≈ 489 µM) | – | – | O=C(O)c1cccc([N+](=O)[O-])c1C(=O)Nc1ccc(OCc2cccc(OC(F)(F)F)c2)c(Cl)c1 [Compound 421] | – |
| – | 250 µg/mL (≈ 536 µM) | – | – | O=C(O)c1cccnc1C(=O)Nc1ccc(OCc2cccc(OC(F)(F)F)c2)c(Cl)c1 [Compound 423] | – |
| – | > 250 µg/mL | – | – | O=C(O)c1ccncc1C(=O)Nc1ccc(OCc2cccc(OC(F)(F)F)c2)c(Cl)c1 [Compound 424] | – |

The next lines start with the compound.

| SMILES | MIC (S. aureus NRS11 (Mec^S); [4]) | MIC (S. aureus NRS100 (Mec^R); [4]) | MIC (S. aureus NRS11 (Mec^S)) | MIC (S. aureus NRS100 (Mec^R)) | also measured |
| --- | --- | --- | --- | --- | --- |
| CCCCOC(=O)c1ccc(NC(=O)c2c(Br)c(Br)c(Br)c(Br)c2C(=O)O)cc1 [Compound 334] | 128 µg/mL (≈ 195 µM) | 128 µg/mL (≈ 195 µM) | – | – | – |
| CCCCOC(=O)c1ccc(NC(=O)C2CCC(C)CC2C(=O)O)cc1 (stereo not drawn) [Compound 337] | – | – | 2,000 μg/mL | 2,000 μg/mL | – |
| CCCCCCCCOc1ccc(NC(=O)c2ccccc2C(=O)O)cn1 [Compound 343] | 256 µg/mL (≈ 691 µM) | 256 µg/mL (≈ 691 µM) | – | – | – |
| CCCCCCCCOc1ccc(NC(=O)c2c(F)c(F)c(F)c(F)c2C(=O)O)cn1 [Compound 344] | 256 µg/mL (≈ 579 µM) | 256 µg/mL (≈ 579 µM) | – | – | – |
| O=C(O)c1c(F)c(F)c(F)c(F)c1C(=O)Nc1ccc(OCC(O)COCC2CC2)c(Cl)c1 (stereo not drawn) [Compound 354] | – | – | 500 µg/mL (≈ 1020 µM) | 500 µg/mL (≈ 1020 µM) | – |
| CCCCCCCCOc1ccc(NC(=O)c2ccccc2C(=O)O)c[n+]1[O-] [Compound 357] | > 2000 µg/mL | > 2000 µg/mL | – | – | – |
| CCCCCCCCOc1ccc(NC(=O)c2c(Cl)c(Cl)c(Cl)c(Cl)c2C(=O)O)c[n+]1[O-] [Compound 358] | – | – | – | – | OXA-10 [1]: xxx |
| CCCCCCCCOc1ccc(NC(=O)c2c(F)c(F)c(F)c(F)c2C(=O)O)c[n+]1[O-] [Compound 359] | 1000 µg/mL (≈ 2180 µM) | 1000 µg/mL (≈ 2180 µM) | – | – | – |
| CCCCCCCCOc1ccc(NC(=O)c2c(Br)c(Br)c(Br)c(Br)c2C(=O)O)c[n+]1[O-] [Compound 360] | – | – | – | – | TEM-1 [2]: xx; OXA-10 [1]: xxx |
| O=C(O)c1c(F)c(F)c(F)c(F)c1C(=O)Nc1ccc(OCc2ccccc2)nc1 [Compound 363] | – | – | >2,000 μg/mL | >2,000 μg/mL | – |
| O=C(O)c1c(Br)c(Br)c(Br)c(Br)c1C(=O)Nc1ccc(OCc2ccccc2)nc1 [Compound 365] | 8 µg/mL (≈ 12 µM) | 16 µg/mL (≈ 24.1 µM) | – | – | inhibitory properties (in words) (S. aureus NRS11 (Mec^S)): significant inhibitory properties; inhibitory activity (in words) (S. aureus NRS100 (Mec^R)): significant inhibitory activity; OXA-10 [1]: xx |
| CC(Oc1ccc(NC(=O)c2ccccc2C(=O)O)cc1Cl)c1ccccc1 (stereo not drawn) [Compound 379] | – | – | >2,000 μg/mL | >2,000 μg/mL | – |
| CC(Oc1ccc(NC(=O)c2c(Cl)c(Cl)c(Cl)c(Cl)c2C(=O)O)cc1Cl)c1ccccc1 (stereo not drawn) [Compound 381] | 16 µg/mL (≈ 30 µM) | 32 µg/mL (≈ 60 µM) | – | – | inhibitory properties (in words) (S. aureus NRS11 (Mec^S)): significant inhibitory properties; inhibitory activity (in words) (S. aureus NRS100 (Mec^R)): significant inhibitory activity; OXA-10 [1]: xxx |
| O=C(O)c1c(F)c(F)c(F)c(F)c1C(=O)Nc1ccc(OCc2cccc(C(F)(F)F)c2)c(Cl)c1 [Compound 388] | 128 µg/mL (≈ 245 µM) | 128 µg/mL (≈ 245 µM) | – | – | TEM-1 [2]: xx; OXA-10 [1]: xx |
| O=C(O)c1c(Cl)c(Cl)c(Cl)c(Cl)c1C(=O)Nc1ccc(OCc2cccc(C(F)(F)F)c2)c(Cl)c1 [Compound 389] | < 8 µg/mL | < 8 µg/mL | – | – | P99 ([3]; Table 10, class symbols x/xx/xxx, key not given): xxx; IC50 ([3]; nitrocefin 100 μM, 10 nM enzyme, 5 min pre-incubation, read-out: IC50s P99): 20.2 ± 3 µM; inhibitory properties (in words) (S. aureus NRS11 (Mec^S)): significant inhibitory properties; IC50 [2]: 4.5 ± 0.4 µM; TEM-1 [2]: xxx; inhibitory activity (in words) (S. aureus NRS100 (Mec^R)): significant inhibitory activity; OXA-10 [1]: xxx; IC50 ([1]; nitrocefin 100 μM, 10 nM enzyme, 5 min pre-incubation, read-out: IC50s OXA-10): 44.2 ± 3.4 µM |
